Experimental data published in patent publication US20180280321A1, “COMPOSITIONS AND METHODS THAT INHIBIT QUORUM SENSING” (The Office of Innovation Commercialization, priority 2015, published 2018).
“Also recorded” adds a separate entry of the source. Like-named read-outs stand apart in the source and are kept apart here.

Experiments:
agr::P3 promoter [1] = assay type: cell-based, S. aureus
S. aureus = assay type: cell-based; settings: at concentrations that inhibit quorum sensing
[2] = test system: RNAIII, psm α and hla transcription; assay type: cell-based, S. aureus
A549 cells = assay: Eukaryotic cytotoxicity, XTT assay; assay type: cell-based, human; settings: A549, 24-hour incubation, at concentrations required for agr-inhibition
Description: (§1) Sigma-Aldrich, St. Louis, Mo.) and phenazine methosulfate (PMS; Sigma-Aldrich, St. Louis, Mo.) were used to perform an XTT assay as previously described (Scuderio et al., 1988, Cancer Res. 48:4827-4833). After 24 hours, spent media was removed and fresh media containing the indicated drug concentrations or vehicle was added to the cells and incubated for an additional 24 hours. […] Cell viability was assessed by the metabolic reduction of tetrazolium measured at OD490. Data are presented as percent viable cells compared to vehicle control.

HEK293 cells = assay: Eukaryotic cytotoxicity, XTT assay; assay type: cell-based, human; settings: HEK293, 24-hour incubation, at concentrations required for agr-inhibition
Description: as §1

HepG2 cells = assay: Eukaryotic cytotoxicity, XTT assay; assay type: cell-based, human; settings: hepatocyte cell line (HepG2), 24-hour incubation, at concentrations required for agr-inhibition
Description: as §1

AgrC-WT isolate AH3469 = assay type: cell-based, S. aureus
AgrAC and P2-FAM complex = AgrAC and P2-FAM complex (Staphylococcus aureus, UniProt P0A0I7); assay type: binding, S. aureus; settings: EMSA, 2 μM AgrAC
[3] = target: AgrAC binding to agr promoter DNA (P2-FAM) (Staphylococcus aureus, UniProt P0A0I7); parameters: species or system S. aureus; settings: bead-based flow cytometry, biotinylated AgrAC on SA beads, P2-FAM 1.6 μM
AgrAC-C199S = AgrAC-C199S (Staphylococcus aureus, UniProt P0A0I7, C199S); assay type: binding, S. aureus; settings: SPR, His-tagged AgrAC-C199S on NTA biosensor, 25° C.
agr::P3 promoter [4] = assay type: cell-based; settings: agr-I S. epidermidis AH3408, 5 μg/mL OHM, 24 hours
USA300 isolate LAC = assay type: in vivo, SKH1 mice; settings: for bacterial burden at the site of infection: LAC infected, single OHM treatment
[5] = test system: S. aureus LAC / LACΔagr in RAW 264.7 macrophages; assay type: cell-based, mouse; settings: LAC pre-treated with 5 μg/mL OHM, RAW 264.7, MOI 1:1; vs vehicle
[6] = test system: S. aureus LAC / LACΔagr in human PMNs; assay type: cell-based
human PMNs = assay type: cell-based; settings: supernatant from OHM- versus vehicle-treated LAC, 5 μg/mL OHM, two hours
MRSA isolate LAC [7] = assay type: in vivo, SKH1 mice; settings: OHM injected subq near the site of infection four hours post-infection
MRSA isolate LAC [8] = assay type: in vivo; settings: STZ-treated diabetic C57BL/6 mice, OHM given along with 5×10^7 CFU LAC

O=C1c2cc(O)cc(O)c2C(=O)c2c(O)cc(CO)cc21 [OHM, 1,3,8-trihydroxy-6-(hydroxymethyl)anthracene-9,10-dione]
agr::P3 promoter activation (quorum sensing) (agr::P3 promoter [1]; agr-I, agr-II, agr-III, agr-IV reporter strains, OHM 100 to 0.05 μM): inhibited quorum sensing by all four agr types | in vitro agr-I transcription inhibition activity (agr::P3 promoter [1]; among polyhydroxyanthraquinones from Penicillium restrictum): most potent | bacterial growth (OD600) (S. aureus): do not impact bacterial growth; also recorded: absence of bactericidal or bacteriostatic effects | transcription of RNAIII [2]: decreased transcription | transcription of alpha-hemolysin (hla) [2]: decreased transcription | cell viability (toxicity) (A549 cells): non-toxic | cell viability (toxicity) (HEK293 cells): non-toxic | cell viability (toxicity) (HepG2 cells): non-toxic | agr-mediated Hla expression (lysis of rabbit RBCs) (AgrC-WT isolate AH3469): inhibited Hla expression | inhibition of AgrAC binding to agr promoter DNA (AgrAC and P2-FAM complex): dose-dependent inhibition | inhibition of AgrAC binding to agr promoter DNA [3]: dose-dependent inhibition | direct binding to immobilized AgrAC (AgrAC-C199S): bound directly | agr activation (agr::P3 promoter) (agr::P3 promoter [4]): significantly inhibited | bacterial burden at the site of infection (USA300 isolate LAC; day seven post-infection): reduced | bacterial burden at the site of infection (USA300 isolate LAC; day three post-infection): reduced | differences between OHM and vehicle treated mice (abscesses and ulcers) (USA300 isolate LAC; mouse, in vivo): no differences were observed | histological analysis of skin sections: abscess formation and ulceration (USA300 isolate LAC; mouse, in vivo): overall reduction in abscess formation and ulceration | local Hla expression at the site of infection (western blot) (USA300 isolate LAC; mouse, in vivo): decreased local Hla expression | local IL-1β in abscess tissue (multiplex) (USA300 isolate LAC; mouse, in vivo): significant reductions | local IL-6 in abscess tissue (multiplex) (USA300 isolate LAC; mouse, in vivo): significant reductions | local TNFα in abscess tissue (multiplex) (USA300 isolate LAC; mouse, in vivo): significant reductions | transcription of il-1β in abscess tissue (USA300 isolate LAC; mouse, in vivo): reduced transcription | transcription of il-6 in abscess tissue (USA300 isolate LAC; mouse, in vivo): reduced transcription | transcription of nlrp3 in abscess tissue (USA300 isolate LAC; mouse, in vivo): decreased transcription | transcription of tnfα in abscess tissue (USA300 isolate LAC; mouse, in vivo): reduced transcription | morbidity (assessed by weight loss) (USA300 isolate LAC; mouse, in vivo, 0.25 mg/kg): significantly inhibited | abscess formation (USA300 isolate LAC; mouse, in vivo, sc, 0.25 mg/kg): significantly inhibited | ulcer (dermonecrosis) formation (USA300 isolate LAC; mouse, in vivo, sc, 0.25 mg/kg): significantly inhibited | intracellular killing by mouse macrophages [5]: significantly increased intracellular killing | intracellular killing by human PMNs ([6]; LAC pre-treated with 5 μg/mL OHM, MOI 1:1, vs vehicle): significantly increased intracellular killing | opsonophagocytosis: total number and percent of bacteria phagocytosed ([6]; bacteria pre-treated with vehicle or OHM, human PMNs): equivalent | PMN survival in the presence of S. aureus supernatant (human PMNs): significantly increased survival | abscess formation (MRSA isolate LAC [7]): limits abscess formation | ulcer area (dermonecrosis) (MRSA isolate LAC [7]): limits abscess formation and dermonecrosis | abscess formation (MRSA isolate LAC [8]): limits abscess formation | ulcer formation (dermonecrosis) (MRSA isolate LAC [8]): limits abscess formation and dermonecrosis
